# Measurements: patent US20240124503A1, “HETEROAROMATIC PHOSPHONIUM SALTS AND THEIR USE TREATING CANCER” (FLORATEK PHARMA S.A., priority 2021, published 2024)
# Read-outs that look alike come from different tables or passages of the source.
# Legend:
# Type in all cases: cell-based
# MCF-7 = assay: Cell viability assay, MCF-7; conditions: breast carcinoma cell line MCF-7
# Protocol: (§1) Antitumor activity of the compounds and doxorubicin as a positive control was assessed by using the CellTiter-Blue Cell Viability Assay (Promega, #G8082) or CellTiter-Glow® Luminescent Cell Viability assay (Promega #G7572) according to the manufacturer's instructions. The compounds were tested at 5 or 6 concentrations in half-log increments (highest concentration 30 μM or 100 μM) in duplicate or triplicate well conditions.
# (§2) Tumor cells were grown at 37° C. in a humidified atmosphere with 5% CO2 in RPMI 1640 or DMEM medium, supplemented with 10% (v/v) fetal calf serum and 50 μg/ml gentamicin for up to 20 passages, and were passaged once or twice weekly. Cells were harvested using TrypLE or PBS buffer containing 1 mM EDTA, and the percentage of viable cells was determined using a CASY Model TI cell counter (OMNI Life Science). Cells were harvested from exponential phase cultures, counted and plated in 96 well flat-bottom microtiter plates at a cell density depending on the cell line's growth rate (4,000-20,000 cells/well depending on the cell line's growth rate, up to 60,000 for hematological cancer cell lines) in RPMI 1640 or DMEM medium supplemented with 10% (v/v) fetal calf serum and 50 μg/ml gentamicin (140 μl/well). […] Viability of cells was quantified by the CellTiter-Blue® cell viability assay (Promega G8081) or CellTiter-Glow® Luminescent Cell Viability assay (Promega #G7572). […]
# BR-05-0014E = assay: Cell viability, breast PDX BR-05-0014E
# Protocol: (§3) PDX-derived cell cultures were obtained from tumors explanted from mice and isolated by mechanical and enzymatic dissociation. […] Cells were harvested and seeded in 96-wells plates at a density of 1.25 to 5×10^3 cells/well for cytotoxicity assays. Cells were incubated 48 h at 37° C. prior to addition of test molecules and vehicle (DMSO, 0.1%) at desired final concentrations. Cell viability was assessed before drugs' addition (To) and 5 days after test molecules addition by measuring ATP cell content using CellTiter-Glo® Luminescent Cell Viability Assay (Promega) according to the manufacturer's instructions. Luciferase activity was measured on a luminometer (PerkinElmer® EnVision™). Each concentration of compounds was tested in triplicate.
# (§4) Viability was calculated as a percentage of ATP value compared to vehicle treated controls.
# (§5) For PDX primary cell cultures, the tumour tissue was washed with PBS containing antibiotic-antimycotic and non-tumour tissue and necrotic tumour tissues were separated. The tumour tissue was transferred to a new dish and cut into 1˜2 mm^3 fragments, resuspended in RPMI-1640 medium and centrifuged at 1,200 rpm for 6 min at room temperature. The pelleted material was resuspended with 15 mL of Tumour Cell Digestion Solution and incubated at 37° C. for 1 hour with agitation. […]
# LU-01-0025 = assay: Cell viability, lung PDX LU-01-0025
# Protocol: as §3, §4, §5
# ONCap = assay: Cell viability assay, ONCap; conditions: prostate carcinoma cell line ONCap
# Protocol: as §1, §2
# LU-01-0604 = assay: Cell viability, lung PDX LU-01-0604
# Protocol: as §3, §4, §5
# HCT-15 = assay: Cell viability assay, HCT-15; conditions: colon carcinoma cell line HCT-15
# Protocol: as §1, §2
# ST-02-0322 = assay: Cell viability, stomach PDX ST-02-0322
# Protocol: as §3, §4, §5
# HCT-116 = assay: Cell viability assay, HCT-116; conditions: colon carcinoma cell line HCT-116
# Protocol: as §1, §2
# CH-17-0091 = assay: Cell viability, bile duct PDX CH-17-0091
# Protocol: as §3, §4, §5
# PC-3 = assay: Cell viability assay, PC-3; conditions: prostate carcinoma cell line PC-3
# Protocol: as §1, §2
# ME-21-0028 = assay: Cell viability, skin melanoma PDX ME-21-0028
# Protocol: as §3, §4
# (§6) For PDX primary cell cultures, the tumour tissue was washed with PBS containing antibiotic-antimycotic and non-tumour tissue and necrotic tumour tissues were separated. The tumour tissue was transferred to a new dish and cut into 1˜2 mm^3 fragments, resuspended in RPMI-1640 medium and centrifuged at 1,200 rpm for 6 min at room temperature. The pelleted material was resuspended with 15 mL of Tumour Cell Digestion Solution and incubated at 37° C. for 1 hour with agitation. Following further addition of media, centrifugation and passage through a 70 μm cell strainer, the homogenous cell mixture was layered onto 15 mL of Ficoll-Paque PLUS in a 50 mL conical tube and centrifuged for 15 min at 1,600 rpm. The interface cells were collected, washed with media, separated by centrifugation at 1,200 rpm. The cell pellet was resuspended in serum free media supplemented with growth factors. 10,000 cells/wells were plated in a 96 well plate and incubated at 37° C., 5% CO2, 95% air and 100% relative humidity overnight. The cytotoxicity assay was conducted as above.
# (§7) Sigmoidal concentration-response curves were fitted to the data points (test-versus-control, T/C values) obtained for each tumor model using GraphPad prism 5.02 software.
# KM-12 = assay: Cell viability assay, KM-12; conditions: colon carcinoma cell line KM-12
# Protocol: as §1, §2
# CO-04-0722 = assay: Cell viability, colon PDX CO-04-0722
# Protocol: as §3, §4, §5
# LU-01-0027 = assay: Cell viability, lung PDX LU-01-0027
# Protocol: as §3, §4, §5
# LU-01-0004 = assay: Cell viability, lung PDX LU-01-0004
# Protocol: as §3, §4, §5
# BR-05-0399 = assay: Cell viability, breast PDX BR-05-0399
# Protocol: as §3, §4, §5
# ES-06-0122 = assay: Cell viability, esophagus PDX ES-06-0122
# Protocol: as §3, §4, §5
# ST-020012 = assay: Cell viability, stomach PDX ST-020012
# Protocol: as §3, §4, §5
# MDA-MB-468 = assay: Cell viability assay, MDA-MB-468; conditions: breast carcinoma cell line MDA-MB-468
# Protocol: as §1, §2
# HN-13-0020 = assay: Cell viability, head and neck PDX HN-13-0020
# Protocol: as §3, §4, §6, §7
# [1] = skin melanoma PDX ME-21-0028, read-out: IC50
# [2] = head and neck PDX HN-13-0020, read-out: IC50
SMILES,IC50 (BR-05-0014E) [µM],IC50 (LU-01-0025) [µM],IC50 (ONCap) [µM],IC50 (LU-01-0604) [µM],IC50 (ST-02-0322) [µM],IC50 (CH-17-0091) [µM],IC50 (ME-21-0028; [1]) [µM],IC50 (CO-04-0722) [µM],IC50 (LU-01-0027) [µM],IC50 (LU-01-0004) [µM],IC50 (BR-05-0399) [µM],IC50 (ES-06-0122) [µM],IC50 (ST-020012) [µM],IC50 (HN-13-0020; [2]) [µM],also measured
"COc1c(O)ccc2c(=O)c(O)c(-c3ccc(CCCC[P+](c4ccccc4)(c4ccccc4)c4ccccc4)cc3)oc12 [SND190, (4-(4-(3,7-Dihydroxy-8-methoxy-4-oxo-4H1-chromen-2-yl)phenyl)butyl)triphenylphosphonium bromide]",6.6,0.6,1.5,2,6.3,4,2.2,4.4,4,5.4,5.4,6.5,4.5,2.26,"IC50 (MCF-7; Homo sapiens, MCF7): 3.91 µM; IC50 (HCT-15; Homo sapiens): 15 µM; IC50 (HCT-116; Homo sapiens): 0.81 µM; IC50 (PC-3; Homo sapiens): 1.69 µM; IC50 (ME-21-0028; text summary of Table 21, read-out: IC50, skin melanoma PDX growth): < 20 µM; IC50 (KM-12; Homo sapiens, KM12): 1.7 µM; IC50 (MDA-MB-468; Homo sapiens): 0.3 µM; IC50 (HN-13-0020; summary of Table 10, read-out: IC50, head and neck PDX growth): < 5 µM"
"O=c1cc(-c2ccc(CCC[P+](c3ccccc3)(c3ccccc3)c3ccccc3)cc2)oc2c(O)c(O)ccc12 [SND200, (3-(4-(7,8-Dihydroxy-4-oxo-4H1-chromen-2-yl)phenyl)propyl)triphenylphosphonium bromide]",19,4.9,0.52,7.8,8.5,9.5,10.9,9.8,1.8,9.8,14.9,8.8,8.8,4.1,IC50 (MCF-7): 1.68 µM; IC50 (HCT-15): 7.49 µM; IC50 (HCT-116): 1.48 µM; IC50 (PC-3): 0.3 µM; IC50 (KM-12): 0.44 µM; IC50 (MDA-MB-468): 0.3 µM
